Values quoted from earlier work as cited in patent publication US20150202321A1, “COMPOSITIONS COMPRISING CHITOSAN-DRUG CONJUGATES AND METHODS OF MAKING AND USING THE SAME” (NEWGEN BIOPHARMA CORP., priority 2012, published 2015).
Counter-ions that a name gives are not always drawn. Like-named read-outs stand apart in the source and are kept apart here.

What was measured:
[1] = oral
[2] = not given; remark: listed apart in the source

In the case of CC(C)c1c(C(=O)Nc2ccccc2)c(-c2ccccc2)c(-c2ccc(F)cc2)n1CC[C@@H](O)C[C@@H](O)CC(=O)O [AT, [R—(R/,R/)]-2-(4-fluorophenyl)-b,d-dihydroxy-5-(1-methylethyl)-3-phenyl-4-[(phenylamino)carbonyl]-1H-pyrrole-1-heptanoic acid, calcium salt (2:1) trihydrate], the “systemic availability for HMG-CoA reductase activity” value [1] is given as “approximately 30%”.
For CC(=O)O[C@@]12CO[C@@H]1C[C@H](O)[C@@]1(C)C(=O)[C@H](O)C3=C(C)[C@@H](OC(=O)[C@H](O)[C@@H](NC(=O)OC(C)(C)C)c4ccccc4)C[C@@](O)([C@@H](OC(=O)c4ccccc4)[C@H]21)C3(C)C [docetaxel], the bioavailability (intravenous administration) is given as 100%, the oral bioavailability (co-administered with cyclosporine) is given as 90%±44% and the oral bioavailability (on its own) is given as 8%±6%.
In the case of CC(C)c1nc(N(C)S(C)(=O)=O)nc(-c2ccc(F)cc2)c1/C=C/[C@@H](O)C[C@@H](O)CC(=O)O [rosuvastatin], the “AUC following evening or morning drug administration” value ([2]; evening versus morning) is listed as “does not differ”, the absolute bioavailability ([2]; man) is listed as “approximately 20%” and the elimination half life ([2]; man) is listed as roughly 19 h.
